Legend:
[1] = system: mouse ES cells; test: qPCR of gene expression in mouse ES cells, RA-induced differentiation; type: cell-based; conditions: for HoxA9 relative expression / Neurog2 relative expression / Olig1 relative expression / Runx1 relative expression: + RA 2 days, qPCR
Experimental: J1 ESCs were cultured feeder free on 0.1% gelatin-coated plates in ESC culture medium (Dulbecco’s modified Eagle’s medium (Hi-glucose), supplemented with 15% fetal bovine serum (Corning), non-essential amino acids, L-glutamine, β-mercaptoethanol, 1% penicillin/streptomycin, sodium pyruvate and 1000 U/mL leukemia inhibitory factor (LIF) (Ebioscience, 34-8521-82). For embryoid body formation, mouse ES cells were dissociated from gelatin-coated plates and seeded on non-adherent cell culture dishes (Greiner) at a density of 1 × 10^5 cells/mL in 10 mL of differentiation medium (ESC culture medium without LIF). Media was exchanged every 48 h and cells were collected at indicated time course. For neuronal differentiation, cells were plated on gelatin-coated plates at a density of 1×10^4 cells/cm^2 in ESC culture medium. The following day, medium was exchanged to differentiation medium +1 μM retinoic acid (RA) (Sigma) to induce differentiation. Medium was exchanged every 48 h for indicated time course.
Total RNA was extracted with RNeasy Mini Kit (QIAGEN) and reverse transcribed using Superscript III Reverse Transcriptase (Life Technologies). qPCR analysis was performed using Brilliant III Ultra Fast SYBR Green QPCR Master Mix (Agilent Technologies). Gene expression data were normalized against Hprt/Gapdh and represented as fold change relative to the control. The relative expression values are shown as mean ± S.D. For ChIP-qPCR, chromatin occupancy was calculated as the ratio of the amount of immunoprecipitated DNA to that of the input sample (% input).
CRISPR/Cas9 mediated editing was performed essentially as described. The designed gRNA ([…]) was cloned into the pSpCas9(BB)-2A-GFP (PX458) plasmid (a gift from Feng Zhang) and miniprepped using standard DNA miniprep procedures (Qiagen). J1 mES cells were transfected with sgRNAs or empty vector with Lipofectamine 2000 (ThermoFisher). Transfected cells were isolated by FACS at the Mount Sinai Flow Cytometry Core facility, and a single cell was plated per well in 96-well plates. Cells were cultured for 2-3 weeks until single colonies were visible. Cells were harvested and DNA was extracted using the QuickExtract solution (Epibio). PCR was performed using the following primers: Ash1l, F:TAGAAAGTCTGCACGGGCG, R:[…], Nestin, F:[…], R:[…], HoxA9, F:[…], R: […], Pax6, F:[…], R:[…], Gata4, F: […], R: […], Sox7, F:[…], R:[…], Pou5f1, F:[…], R:CAGGGCTTTCATGTCCTGG, Brachyury, F:GAGAGCGCAGGGAAGAGC, R:[…], Nkx2-5, F:[…], R:[…].

[2] = system: Meis2 enhancer and promoter sites; test: ChIP-qPCR of Ash1l occupancy at Meis2 promoter and enhancers; type: cell-based, mouse; conditions: for Ash1l occupancy, Meis2 Enh 1 / Ash1l occupancy, Meis2 Enh 2 / Ash1l occupancy, Meis2 Enh 3 / Ash1l occupancy, Meis2 promoter: Ash1l ChIP, + RA
Experimental: J1 ESCs were cultured feeder free on 0.1% gelatin-coated plates in ESC culture medium (Dulbecco’s modified Eagle’s medium (Hi-glucose), supplemented with 15% fetal bovine serum (Corning), non-essential amino acids, L-glutamine, β-mercaptoethanol, 1% penicillin/streptomycin, sodium pyruvate and 1000 U/mL leukemia inhibitory factor (LIF) (Ebioscience, 34-8521-82). For embryoid body formation, mouse ES cells were dissociated from gelatin-coated plates and seeded on non-adherent cell culture dishes (Greiner) at a density of 1 × 10^5 cells/mL in 10 mL of differentiation medium (ESC culture medium without LIF). Media was exchanged every 48 h and cells were collected at indicated time course. For neuronal differentiation, cells were plated on gelatin-coated plates at a density of 1×10^4 cells/cm^2 in ESC culture medium. The following day, medium was exchanged to differentiation medium +1 μM retinoic acid (RA) (Sigma) to induce differentiation. Medium was exchanged every 48 h for indicated time course. Total RNA was extracted with RNeasy Mini Kit (QIAGEN) and reverse transcribed using Superscript III Reverse Transcriptase (Life Technologies). qPCR analysis was performed using Brilliant III Ultra Fast SYBR Green QPCR Master Mix (Agilent Technologies). Gene expression data were normalized against Hprt/Gapdh and represented as fold change relative to the control. The relative expression values are shown as mean ± S.D. For ChIP-qPCR, chromatin occupancy was calculated as the ratio of the amount of immunoprecipitated DNA to that of the input sample (% input).

[3] = system: mouse ES cells; test: RNA-seq analysis of differentiated mouse ES cells; type: cell-based; conditions: RNA-seq data of ref 19
Experimental: RNA-seq data reported by Yin et al.[19] was analyzed to compare RNA from undifferentiated mouse ES cells to RNA from mouse ES cells differentiated under various conditions, as described in Fig. 1. Reads were filtered using Trimmomatic v0.40 and mapped to the mouse reference genome (mm9) by TopHat (version 2.0.10). Fragments were enumerated to the UCSC reference transcriptome using the hseq-count function from the HTSeq package (version 0.6.0). Genes with <5 fragments were filtered out and gene expression changes (FC > 1.5, FDR < 0.01) were analyzed using DESeq2 (v1.42.1), with undifferentiated cells as controls. Heatmaps were generated using either the ggplot2 or pheatmap packages with z-score normalization.
Supplementary Figure 1. Analysis of RNA-seq data reported by Yin et al. (ref. 19),
comparing RNA from undifferentiated mouse ES cells to RNA from mouse ES cells
differentiated under multiple conditions (see Figure 1). Gene expression changes (FC >
1.5, FDR < 0.01 ) in 4-day RA differentiated cells were identified using DESeq2, with
undifferentiated cells as controls.
after RA treatment. Related to Figure 1.
(1 picture or pasted object on this page, not shown here)

[4] = system: Ash1l; test: Western blot of Ash1l protein expression level; type: cell-based, mouse; conditions: retinoic acid for 6 days

`CC1=C(/C=C/C(C)=C/C=C/C(C)=C/C(=O)O)C(C)(C)CCC1` [RA, retinoic acid] gave a HoxA9 relative expression ([1]; WT mES cells, replicate 1) of 83.8652, a Neurog2 relative expression ([1]; WT mES cells, replicate 1) of 4.681 and an Olig1 relative expression ([1]; WT mES cells, replicate 1) of 5.04. The Runx1 relative expression ([1]; WT mES cells, replicate 1) was 31.4139, the HoxA9 relative expression ([1]; WT mES cells, replicate 2) was 95.0095 and the Neurog2 relative expression ([1]; WT mES cells, replicate 2) was 6.712. The Olig1 relative expression ([1]; WT mES cells, replicate 2) was 5.327, the Runx1 relative expression ([1]; WT mES cells, replicate 2) was 47.9458 and the HoxA9 relative expression ([1]; WT mES cells, replicate 3) was 128.89. The Neurog2 relative expression ([1]; WT mES cells, replicate 3) was 11.2096, the Olig1 relative expression ([1]; WT mES cells, replicate 3) was 5.4768 and the Runx1 relative expression ([1]; WT mES cells, replicate 3) was 42.0296. The “transcriptional expression of Ash1l” value ([1]; qPCR time course, RA-induced differentiation) was “dramatic and time-dependent increase”, the “expression of HoxA9, Runx1, Neurog2, and Olig1 in CRISPR/Cas9 edited B7 clone” value ([1]; retinoic acid, two days) was “altered expression” and the HoxA9 relative expression ([1]; ΔAsh1l B7 clone, replicate 1) was 9.646. The Neurog2 relative expression ([1]; ΔAsh1l B7 clone, replicate 1) was 28.3773, the Olig1 relative expression ([1]; ΔAsh1l B7 clone, replicate 1) was 3.982 and the Runx1 relative expression ([1]; ΔAsh1l B7 clone, replicate 1) was 2.976. For the same molecule, the HoxA9 relative expression ([1]; ΔAsh1l B7 clone, replicate 2) was 8.282, the Neurog2 relative expression ([1]; ΔAsh1l B7 clone, replicate 2) was 24.5333 and the Olig1 relative expression ([1]; ΔAsh1l B7 clone, replicate 2) was 4.037. For the same molecule, the Runx1 relative expression ([1]; ΔAsh1l B7 clone, replicate 2) was 2.4005, the HoxA9 relative expression ([1]; ΔAsh1l B7 clone, replicate 3) was 11.0043 and the Neurog2 relative expression ([1]; ΔAsh1l B7 clone, replicate 3) was 29.378. For the same molecule, the Olig1 relative expression ([1]; ΔAsh1l B7 clone, replicate 3) was 4.238, the Runx1 relative expression ([1]; ΔAsh1l B7 clone, replicate 3) was 2.591 and the “Ash1l occupancy, Meis2 Enh 1” value ([2]; replicate 1) was 0.01897 % input. For the same molecule, the “Ash1l occupancy, Meis2 Enh 2” value ([2]; replicate 1) was 0.04268 % input, the “Ash1l occupancy, Meis2 Enh 3” value ([2]; replicate 1) was 0.02225 % input and the “Ash1l occupancy, Meis2 promoter” value ([2]; replicate 1) was 0.06078 % input. The “Ash1l occupancy, Meis2 Enh 1” value ([2]; replicate 2) was 0.02319 % input, the “Ash1l occupancy, Meis2 Enh 2” value ([2]; replicate 2) was 0.04358 % input and the “Ash1l occupancy, Meis2 Enh 3” value ([2]; replicate 2) was 0.02683 % input. For the same molecule, the “Ash1l occupancy, Meis2 promoter” value ([2]; replicate 2) was 0.06121 % input, the “Ash1l occupancy, Meis2 Enh 1” value ([2]; replicate 3) was 0.01327 % input and the “Ash1l occupancy, Meis2 Enh 2” value ([2]; replicate 3) was 0.04413 % input. The “Ash1l occupancy, Meis2 Enh 3” value ([2]; replicate 3) was 0.02442 % input, the “Ash1l occupancy, Meis2 promoter” value ([2]; replicate 3) was 0.05366 % input and the “Ash1l recruitment to promoter and enhancer sites of Meis2” value ([2]; RA-induced ESC differentiation, ChIP-qPCR) was “recruited to promoter and enhancer sites”. The Ash1l expression upregulation ([3]; 4 days RA differentiation, FDR < 0.01, vs undifferentiated) was 1.96 fold, the “expression of Nsd1, all Mll family genes and several Plc genes (Ezh1, Ring1, Cbx7/8)” value ([3]; RA differentiation) was “noticeably up-regulated” and the “expression of Setd2, BRD2/3/4 and Ezh2” value ([3]; RA differentiation) was “down-regulated”. For the same molecule, the “Ash1l protein expression level” value [4] was “highest”.

From paper PMC11883000, “Structure-function relationship of ASH1L and histone H3K36 and H3K4 methylation” (Nature Communications, 2025)
